This is an account of results in PubChem BioAssay (NCI).

As a reminder, the GI50 is the concentration giving 50% growth inhibition. A word on the TGI: it is the concentration at which net growth stops.

Some test systems named below: SN12C renal; KM12 colon; COLO 205 colon; SNB-75 CNS; OVCAR-4 ovarian; SF-295 CNS; UACC-257 melanoma; SF-539 CNS; SK-MEL-28 melanoma; HCC-2998 colon.
Holding throughout (assay): DTP human tumour cell line panel, 48 h

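Dose response: 5 concentrations. Exposure: 48 h. Format: 96-well plates. Endpoint: linear interpolation; highest concentration if not reached. GI50 is the concentration that inhibits growth by half. TGI: concentration producing complete growth inhibition.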

Take `CC1c2ccccc2N=C2SC(=S)N3CCN=C3N21` (stereo not given): the GI50 with SN12C renal is > 100 µM; in the assay on KM12 colon, > 100 µM; in the assay on COLO 205 colon, > 100 µM; in the assay on SNB-75 CNS, > 100 µM; in the assay on OVCAR-4 ovarian it was > 100 µM; in the assay on SF-295 CNS, 97.8 µM. Also, the GI50 with UACC-257 melanoma, with SF-539 CNS, with SK-MEL-28 melanoma and in the assay on HCC-2998 colon was > 100 µM each time. Also, the total growth inhibition concentration (TGI) in the assay on SN12C renal, in the assay with KM12 colon, with COLO 205 colon, in the assay on SNB-75 CNS, in the assay with OVCAR-4 ovarian and in the assay with SF-295 CNS was > 100 µM each time. Also, the concentration for total growth inhibition (TGI) in the assay on UACC-257 melanoma, in the assay with SF-539 CNS, in the assay with SK-MEL-28 melanoma and in the assay on HCC-2998 colon was > 100 µM each time.

Regarding `COc1ccc(-c2c(C3=NCCCN3)nnn2-c2ccc([N+](=O)[O-])cc2)cc1`, the concentration for total growth inhibition (TGI) in the assay with SN12C renal, with KM12 colon, with COLO 205 colon, with SNB-75 CNS, in the assay with OVCAR-4 ovarian and in the assay on SF-295 CNS was > 100 µM in each case. Besides, the TGI in the assay on UACC-257 melanoma, in the assay on SF-539 CNS, with SK-MEL-28 melanoma and in the assay on HCC-2998 colon was > 100 µM each time.

Turning to `O=C(c1cccs1)C1NO[N+]([O-])=C1c1cccs1` (stereo not given), the GI50 with SN12C renal was 9.49 µM; with KM12 colon, 3.33 µM; in the assay with COLO 205 colon, 1.8 µM; in the assay on SNB-75 CNS, 1.54 µM; in the assay with OVCAR-4 ovarian, 2.13 µM; in the assay on SF-295 CNS it was 6.07 µM. Besides, the GI50 in the assay on UACC-257 melanoma is 5.16 µM; with SF-539 CNS, 1.86 µM; with SK-MEL-28 melanoma, 2.52 µM; in the assay on HCC-2998 colon it was 17.2 µM. Further, the TGI with SN12C renal worked out at 21.8 µM; in the assay with KM12 colon, 12.1 µM; with COLO 205 colon, 4.51 µM; in the assay with SNB-75 CNS it was 3.89 µM; with OVCAR-4 ovarian, 4.97 µM; in the assay with SF-295 CNS it was 12.4 µM. Further, the TGI in the assay with UACC-257 melanoma is 15.3 µM; with SF-539 CNS, 3.39 µM; in the assay on SK-MEL-28 melanoma, 6.8 µM; in the assay with HCC-2998 colon, 31.7 µM.

In the case of `COc1cc(CNc2nc3ccc(C(F)(F)F)cc3nc2-c2ccccc2)cc(OC)c1OC`, the TGI is > 100 µM with SN12C renal; > 100 µM in the assay with KM12 colon; > 100 µM in the assay with COLO 205 colon; 61.7 µM with SNB-75 CNS; > 100 µM with OVCAR-4 ovarian; > 100 µM in the assay on SF-295 CNS. The TGI in the assay on UACC-257 melanoma, in the assay with SF-539 CNS, with SK-MEL-28 melanoma and with HCC-2998 colon was > 100 µM in each case.

`Clc1ccc2c(c1)N(c1ncnc3ccc(-c4cnc5[nH]ncc5c4)cc13)CC2`: the 50% growth inhibitory concentration (GI50) in the assay with SN12C renal was 0.407 µM; with KM12 colon it was 3.53 µM; with COLO 205 colon it was 0.695 µM; in the assay on SNB-75 CNS it was 0.0804 µM; in the assay with OVCAR-4 ovarian, 0.747 µM; in the assay with SF-295 CNS, 0.632 µM. Besides, the GI50 is > 100 µM in the assay on UACC-257 melanoma, 0.645 µM in the assay on SF-539 CNS, 0.77 µM with SK-MEL-28 melanoma and 1.07 µM in the assay on HCC-2998 colon. Besides, the total growth inhibition concentration (TGI) in the assay on SN12C renal was > 100 µM; in the assay with KM12 colon it was > 100 µM; with COLO 205 colon it was > 100 µM; with SNB-75 CNS, 0.517 µM; with OVCAR-4 ovarian it was > 100 µM; in the assay on SF-295 CNS it was > 100 µM. Besides, the TGI with UACC-257 melanoma, with SF-539 CNS, with SK-MEL-28 melanoma and with HCC-2998 colon was > 100 µM throughout.

Regarding `Cc1ccc(C)c(N2C(=O)C(=O)C(c3nc4ccccc4s3)C(=Nc3cccc4c(=O)[nH][nH]c(=O)c34)C2=O)c1` (stereo not given), the TGI in the assay on SN12C renal, in the assay on KM12 colon, with COLO 205 colon, in the assay on SNB-75 CNS, in the assay on OVCAR-4 ovarian and in the assay on SF-295 CNS was > 100 µM each time. Moreover, the total growth inhibition concentration (TGI) in the assay with UACC-257 melanoma, in the assay with SF-539 CNS, in the assay on SK-MEL-28 melanoma and with HCC-2998 colon was > 100 µM throughout.

Regarding `O=C(Cl)C1=C(c2ccccc2)C1c1ccccc1` (stereo not given), the concentration for total growth inhibition (TGI) in the assay on SN12C renal, with KM12 colon, in the assay with COLO 205 colon, in the assay on SNB-75 CNS, in the assay on OVCAR-4 ovarian and in the assay with SF-295 CNS was > 100 µM each time. The TGI in the assay with UACC-257 melanoma, in the assay with SF-539 CNS, in the assay with SK-MEL-28 melanoma and in the assay with HCC-2998 colon was > 100 µM each time.

For the compound `CCN(CC)c1ccc(/C=C/C2=[N+](C)c3ccccc3C2(C)C)c(C)c1`, the concentration for 50% growth inhibition (GI50) with SN12C renal was 0.0738 µM; in the assay with KM12 colon, 0.0491 µM; with COLO 205 colon, 0.0489 µM; in the assay with SNB-75 CNS, 0.0736 µM; in the assay on OVCAR-4 ovarian, 0.0524 µM; in the assay on SF-295 CNS, 0.0358 µM. Further, the concentration for 50% growth inhibition (GI50) with UACC-257 melanoma was 0.0546 µM; in the assay with SF-539 CNS it was 0.0939 µM; in the assay on SK-MEL-28 melanoma, 0.151 µM; with HCC-2998 colon, 0.102 µM. The total growth inhibition concentration (TGI) in the assay on SN12C renal was 1.24 µM; with KM12 colon, 1.36 µM; in the assay with COLO 205 colon it was 0.127 µM; in the assay with SNB-75 CNS, 0.876 µM; with OVCAR-4 ovarian, 11.2 µM; with SF-295 CNS, 1.49 µM. Besides, the TGI worked out at 0.226 µM with UACC-257 melanoma, 7 µM with SF-539 CNS, 2.73 µM with SK-MEL-28 melanoma and 5.27 µM with HCC-2998 colon.

For `CCCCCCCCCCCCCCCCCCOCC(COCCOCC[N+]1(CCCCCC(=O)[O-])CCCC1)Oc1ncccn1` (stereo not given), the TGI in the assay with SN12C renal worked out at 16.7 µM; with KM12 colon, 17.7 µM; in the assay with COLO 205 colon, 3.77 µM; in the assay with SNB-75 CNS, 12.8 µM; with OVCAR-4 ovarian it was 4.22 µM; in the assay on SF-295 CNS, 27.2 µM. Further, the concentration for total growth inhibition (TGI) amounted to 22.7 µM in the assay with UACC-257 melanoma, 15.8 µM in the assay with SF-539 CNS, 22.2 µM with SK-MEL-28 melanoma and 17.4 µM with HCC-2998 colon.

With `Cc1c(C)c(CC(=O)N2CC2)c(C)c(C)c1CC(=O)N1CC1`, the concentration for total growth inhibition (TGI) with SN12C renal was > 56.7 µM; with KM12 colon, 40.3 µM; in the assay on COLO 205 colon, 29.5 µM; in the assay on SNB-75 CNS, 50.8 µM; in the assay on OVCAR-4 ovarian, 44.8 µM; with SF-295 CNS it was 60.5 µM. For the same compound, the concentration for total growth inhibition (TGI) in the assay on UACC-257 melanoma worked out at 50 µM; in the assay with SF-539 CNS, 16.5 µM; with SK-MEL-28 melanoma, 37.6 µM; in the assay with HCC-2998 colon, 25.2 µM.
